# Results published in patent US9695155B2, “Herbicidal substituted pyrimidinyloxy benzene compounds” (E. I. DU PONT DE NEMOURS AND COMPANY, priority 2013, dated 2017).
# How the values were obtained:
# giant foxtail [1] = assay: Test A preemergence; type: in vivo, Setaria faberii; conditions: for Plant response rating, Foxtail, Giant: 0 to 100 scale where 0 is no effect and 100 is complete control
# Summary of the method: (§1)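 Compounds in non-phytotoxic solvent with surfactant applied as soil spray preemergence, or postemergence to plants 2-10 cm at one- to two-leaf stage, in loam/sand. After approximately 10 days in greenhouse, injury rated visually versus untreated controls, 0 (no effect) to 100 (complete control).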
# giant foxtail [2] = assay: Test A postemergence; type: in vivo, Setaria faberii
# Summary of the method: as §1
# corn = assay: Test A postemergence; type: in vivo, Zea mays
# Summary of the method: as §1
# rice = assay: Test B flooded paddy test; type: in vivo, Oryza sativa; conditions: Flood, 250 g ai/ha, 0 to 100 scale where 0 is no effect and 100 is complete control
# Summary of the method: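 Compound added straight to paddy water, with pots kept flooded 3 cm above soil, on plants grown to the 2-leaf stage. Visual scoring 0-100 (100 = complete control) against untreated controls after 13 to 15 greenhouse days.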
# Italian ryegrass = assay: Test C postemergence; type: in vivo, Lolium multiflorum; conditions: for Ryegrass, Italian plant response rating: 31 g ai/ha, 13 to 15 days
# Text: (§2) Seeds of plant species selected from blackgrass (Alopecurus myosuroides), Italian ryegrass (Lolium multiflorum), wheat, winter (winter wheat, Triticum aestivum), galium (catchweed bedstraw, Galium aparine), corn (Zea mays), large (Lg) crabgrass (Digitaria sanguinalis), giant foxtail (Setaria faberii), johnsongrass (Sorghum halepense), lambsquarters (Chenopodium album), morningglory (Ipomoea coccinea), yellow nutsedge (Cyperus esculentus), pigweed (Amaranthus retroflexus), ragweed (common ragweed, Ambrosia elatior), soybean (Glycine max), barnyardgrass (Echinochloa crus-galli), oilseed rape (Brassica napus), waterhemp (common waterhemp, Amaranthus rudis), kochia (Kochia scoparia), wild oat (Avena fatua), surinam grass (Brachiaria decumbens), foxtail, green (green foxtail, Setaria viridis), goosegrass (Eleusine indica), bromegrass, downy (downy bromegrass, Bromus tectorum), nightshade (eastern black nightshade, Solanum ptycanthum), cocklebur (common cocklebur, Xanthium strumarium), cupgrass, woolly (woolly cupgrass, Eriochloa villosa), bermudagrass (Cynodon dactylon), sunflower, (common oilseed sunflower, Helianthus annuus), Russian thistle (Salsola kali), and velvetleaf (Abutilon theophrasti) were planted into a blend of loam soil and sand and treated preemergence with test chemicals formulated in a non-phytotoxic solvent mixture which included a surfactant.
# (§3) At the same time, plants selected from these crop and weed species and also barley, winter (winter barley, Hordeum vulgare), windgrass (Apera spica-venti), chickweed (common chickweed, Stellaria media), deadnettle (henbit deadnettle, Lamium amplexicaule), and canarygrass (littleseed canarygrass, Phalaris minor) were planted in pots containing Redi-Earth® planting medium (Scotts Company, 14111 Scottslawn Road, Marysville, Ohio 43041) comprising spaghnum peat moss, vermiculite, wetting agent and starter nutrients and treated with postemergence applications of test chemicals formulated in the same manner. Plants ranged in height from 2 to 18 cm (1- to 4-leaf stage) for postemergence treatments. Treated plants and controls were maintained in a greenhouse for 13 to 15 days, after which time all species were compared to controls and visually evaluated. Plant response ratings, summarized in Table C, are based on a scale of 0 to 100 where 0 is no effect and 100 is complete control. A dash (-) response means no test result.
# morningglory = assay: Test C postemergence; type: in vivo, Ipomoea coccinea; conditions: for Morningglory plant response rating: 31 g ai/ha, 13 to 15 days
# Text: as §2, §3
# yellow nutsedge = assay: Test C postemergence; type: in vivo, Cyperus esculentus; conditions: for Nutsedge, Yellow plant response rating: 31 g ai/ha, 13 to 15 days
# Text: as §2, §3
# pigweed = assay: Test C postemergence; type: in vivo, Amaranthus retroflexus; conditions: for Pigweed plant response rating: 31 g ai/ha, 13 to 15 days
# Text: as §2, §3
# kochia = assay: Test C postemergence; type: in vivo, Kochia scoparia
# Text: as §2, §3
# wild oat = assay: Test C postemergence; type: in vivo, Avena fatua; conditions: for Oat, Wild plant response rating: 31 g ai/ha, 13 to 15 days
# Text: as §2, §3
# [3] = postemergence, visual rating, scale 0 to 100 (0 no effect, 100 complete control)
# [4] = 31 g ai/ha, 0 to 100 scale, 0 no effect, 100 complete control
# [5] = 125 g ai/ha, 0 to 100 scale where 0 is no effect and 100 is complete control
# [6] = 8 g ai/ha, postemergence, 0 is no effect, 100 is complete control
# [7] = 16 g ai/ha, postemergence, 0 is no effect, 100 is complete control
# [8] = 1000 g ai/ha, 0 to 100 scale, 0 no effect, 100 complete control
# [9] = 125 g ai/ha, postemergence, visual rating, scale 0 to 100 (0 no effect, 100 complete control)
# [10] = Postemergence, 62 g ai/ha, scale 0 to 100 (0 no effect, 100 complete control)
smiles,measurement,setting,value
"Clc1cnc(Oc2ccccc2-n2cc(C3CC3)nn2)nc1 [Compound 160, 5-chloro-2-[2-(4-cyclopropyl-1H-1,2,3-triazol-1-yl)phenoxy]pyrimidine]",pest or weed control at 1000 g/ha,"giant foxtail [1]; Setaria faberi, pre-emergence, 240 h, 1000 g ai/ha, 0 to 100 scale, 0 no effect, 100 complete control, approx. 10 days, read-out: Foxtail, Giant plant response rating",100%
same,pest or weed control at 1000 g/ha,"giant foxtail [2]; Setaria faberi, post-emergence, 240 h, 1000 g ai/ha, 0 to 100 scale, 0 no effect, 100 complete control, read-out: Plant response rating Foxtail, Giant",100%
same,plant injury at 1000 g/ha,"corn; Zea mays, post-emergence, 240 h, 1000 g ai/ha, 0 to 100 scale, 0 no effect, 100 complete control, read-out: Plant response rating Corn",100%
same,plant injury at 250 g/ha,"rice; Oryza sativa, read-out: Plant response rating, Rice",35%
same,"Ryegrass, Italian plant response rating",Italian ryegrass; [3],0
same,pest or weed control at 16 g/ha,"Italian ryegrass; Lolium multiflorum, post-emergence, 16 g ai/ha, postemergence, 0 is no effect, 100 is complete control, read-out: Plant response rating (0 to 100), Ryegrass, Italian",0%
same,pest or weed control at 125 g/ha,"Italian ryegrass; Lolium multiflorum, post-emergence, 125 g ai/ha, postemergence, visual rating, scale 0 to 100 (0 no effect, 100 complete control), read-out: Plant response rating, Ryegrass, Italian",5%
same,pest or weed control at 62 g/ha,"Italian ryegrass; Lolium multiflorum, post-emergence, Postemergence, 62 g ai/ha, scale 0 to 100 (0 no effect, 100 complete control), read-out: Plant response rating, Ryegrass, Italian",0%
same,Morningglory plant response rating,morningglory; [3],75
same,pest or weed control at 16 g/ha,"morningglory; Ipomoea, post-emergence, 16 g ai/ha, postemergence, 0 is no effect, 100 is complete control, read-out: Plant response rating (0 to 100), Morningglory",5%
same,pest or weed control at 125 g/ha,"morningglory; Ipomoea, post-emergence, 125 g ai/ha, postemergence, visual rating, scale 0 to 100 (0 no effect, 100 complete control), read-out: Plant response rating, Morningglory",65%
same,pest or weed control at 62 g/ha,"morningglory; Ipomoea, post-emergence, Postemergence, 62 g ai/ha, scale 0 to 100 (0 no effect, 100 complete control), read-out: Plant response rating, Morningglory",75%
same,"Nutsedge, Yellow plant response rating",yellow nutsedge; [3],5
same,pest or weed control at 16 g/ha,"yellow nutsedge; Cyperus, post-emergence, 16 g ai/ha, postemergence, 0 is no effect, 100 is complete control, read-out: Plant response rating (0 to 100), Nutsedge, Yellow",5%
same,pest or weed control at 125 g/ha,"yellow nutsedge; Cyperus, post-emergence, 125 g ai/ha, postemergence, visual rating, scale 0 to 100 (0 no effect, 100 complete control), read-out: Plant response rating, Nutsedge, Yellow",5%
same,pest or weed control at 62 g/ha,"yellow nutsedge; Cyperus, post-emergence, Postemergence, 62 g ai/ha, scale 0 to 100 (0 no effect, 100 complete control), read-out: Plant response rating, Nutsedge, Yellow",5%
same,Pigweed plant response rating,pigweed; [3],75
same,pest or weed control at 16 g/ha,"pigweed; Amaranthus retroflexus, post-emergence, 16 g ai/ha, postemergence, 0 is no effect, 100 is complete control, read-out: Plant response rating (0 to 100), Pigweed",80%
same,pest or weed control at 125 g/ha,"pigweed; Amaranthus retroflexus, post-emergence, 125 g ai/ha, postemergence, visual rating, scale 0 to 100 (0 no effect, 100 complete control), read-out: Plant response rating, Pigweed",85%
same,pest or weed control at 62 g/ha,"pigweed; Amaranthus retroflexus, post-emergence, Postemergence, 62 g ai/ha, scale 0 to 100 (0 no effect, 100 complete control), read-out: Plant response rating, Pigweed",75%
same,pest or weed control at 16 g/ha,"kochia; Bassia scoparia, post-emergence, 16 g ai/ha, postemergence, 0 is no effect, 100 is complete control, read-out: Plant response rating (0 to 100), Kochia",85%
same,pest or weed control at 31 g/ha,"kochia; Bassia scoparia, post-emergence, 31 g ai/ha, postemergence, visual rating, scale 0 to 100 (0 no effect, 100 complete control), 13 to 15 days, read-out: Kochia plant response rating",90%
same,pest or weed control at 125 g/ha,"kochia; Bassia scoparia, post-emergence, 125 g ai/ha, postemergence, visual rating, scale 0 to 100 (0 no effect, 100 complete control), read-out: Plant response rating, Kochia",100%
same,pest or weed control at 62 g/ha,"kochia; Bassia scoparia, post-emergence, Postemergence, 62 g ai/ha, scale 0 to 100 (0 no effect, 100 complete control), read-out: Plant response rating, Kochia",98%
same,"Oat, Wild plant response rating",wild oat; [3],0
same,pest or weed control at 16 g/ha,"wild oat; Avena fatua, post-emergence, 16 g ai/ha, postemergence, 0 is no effect, 100 is complete control, read-out: Plant response rating (0 to 100), Oat, Wild",0%
same,pest or weed control at 125 g/ha,"wild oat; Avena fatua, post-emergence, 125 g ai/ha, postemergence, visual rating, scale 0 to 100 (0 no effect, 100 complete control), read-out: Plant response rating, Oat, Wild",0%
same,pest or weed control at 62 g/ha,"wild oat; Avena fatua, post-emergence, Postemergence, 62 g ai/ha, scale 0 to 100 (0 no effect, 100 complete control), read-out: Plant response rating, Oat, Wild",0%
FCc1cccc(Oc2ncc(F)cn2)c1-n1cc(I)cn1 [Compound 152],"Plant response rating, Foxtail, Giant","giant foxtail [1]; 31 g ai/ha, visual, approximately 10 days",10
same,"Plant response rating, Foxtail, Giant",giant foxtail [1]; 125 g ai/ha,100
same,"Plant response rating, Foxtail, Giant",giant foxtail [2]; [4],0
same,"Foxtail, Giant plant response rating",giant foxtail [2]; [5],40
same,"Plant response rating, Corn",corn; [4],20
same,Corn plant response rating,corn; [5],30
same,"Plant response rating, Rice",rice,0
same,"Plant response rating (0 to 100), Ryegrass, Italian",Italian ryegrass; [6],0
same,"Plant response rating (0 to 100), Ryegrass, Italian",Italian ryegrass; [7],0
same,"Ryegrass, Italian plant response rating",Italian ryegrass; [3],0
same,"Plant response rating (0 to 100), Morningglory",morningglory; [6],0
same,"Plant response rating (0 to 100), Morningglory",morningglory; [7],10
same,Morningglory plant response rating,morningglory; [3],40
same,"Plant response rating (0 to 100), Nutsedge, Yellow",yellow nutsedge; [6],0
same,"Plant response rating (0 to 100), Nutsedge, Yellow",yellow nutsedge; [7],0
same,"Nutsedge, Yellow plant response rating",yellow nutsedge; [3],0
same,"Plant response rating (0 to 100), Pigweed",pigweed; [6],30
same,"Plant response rating (0 to 100), Pigweed",pigweed; [7],50
same,Pigweed plant response rating,pigweed; [3],60
same,"Plant response rating (0 to 100), Kochia",kochia; [6],10
same,"Plant response rating (0 to 100), Kochia",kochia; [7],15
same,Kochia plant response rating,"kochia; 31 g ai/ha, postemergence, visual rating, scale 0 to 100 (0 no effect, 100 complete control), 13 to 15 days",40
same,"Plant response rating (0 to 100), Oat, Wild",wild oat; [6],0
same,"Plant response rating (0 to 100), Oat, Wild",wild oat; [7],0
same,"Oat, Wild plant response rating",wild oat; [3],5
FCc1cn(-c2ccccc2Oc2ncc(Cl)cn2)nn1 [Compound 123],"Foxtail, Giant plant response rating","giant foxtail [1]; 1000 g ai/ha, 0 to 100 scale, 0 no effect, 100 complete control, approx. 10 days",100
same,"Plant response rating, Foxtail, Giant",giant foxtail [2]; [8],90
same,"Plant response rating, Corn",corn; [8],70
same,"Plant response rating, Rice",rice,0
same,"Plant response rating (0 to 100), Ryegrass, Italian",Italian ryegrass; [7],0
same,"Plant response rating, Ryegrass, Italian",Italian ryegrass; [9],0
same,"Plant response rating, Ryegrass, Italian",Italian ryegrass; [10],0
same,"Plant response rating (0 to 100), Morningglory",morningglory; [7],5
same,"Plant response rating, Morningglory",morningglory; [9],75
same,"Plant response rating, Morningglory",morningglory; [10],55
same,"Plant response rating (0 to 100), Nutsedge, Yellow",yellow nutsedge; [7],5
same,"Plant response rating, Nutsedge, Yellow",yellow nutsedge; [9],10
same,"Plant response rating, Nutsedge, Yellow",yellow nutsedge; [10],10
same,"Plant response rating (0 to 100), Pigweed",pigweed; [7],70
same,"Plant response rating, Pigweed",pigweed; [9],85
same,"Plant response rating, Pigweed",pigweed; [10],85
same,"Plant response rating (0 to 100), Kochia",kochia; [7],50
same,"Plant response rating, Kochia",kochia; [9],85
same,"Plant response rating, Kochia",kochia; [10],70
same,"Plant response rating (0 to 100), Oat, Wild",wild oat; [7],0
same,"Plant response rating, Oat, Wild",wild oat; [9],0
same,"Plant response rating, Oat, Wild",wild oat; [10],0
